Legend:
Conditions in all cases: 48 h
NOMO1 [1] = assay: cell viability relative to DMSO control; higher = less cytotoxic
Method in brief: (§1)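 Library compounds in DMSO were pin-dosed into 1536-well plates (5 μl) holding NOMO1 or SEM (500 cells/well) or P12-Ichikawa (1000 cells/well) leukemia cells, across an 11-point threefold series of 47 μM to 0.79 nM. Each cell line had been adapted for at least four passages in each medium. CellTiter-Glo One luminescence was read after 48 h at 37°C. Viability is the per-plate percentage relative to DMSO wells, with cell-free wells as background.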

P12-Ichikawa [2] = assay: as above
Method in brief: as §1

SEM cells [3] = assay: as above
Method in brief: as §1

NOMO1 [4] = assay: AUC of viability dose-response curve (% viability x log10 dose units); higher = less sensitive
Method in brief: (§2)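 Leukemia cells adapted to each medium were seeded at 500 or 1000 cells/well in 1536-well plates and dosed with library compounds in DMSO at 11 threefold doses from 47 μM to 0.79 nM for 48 h at 37°C. CellTiter-Glo One luminescence was normalised per plate to DMSO and cell-free wells, then fitted with a four-parameter log-logistic model over log10 doses. Area under the curve was taken from this fit by the trapezoidal rule, with curves above full viability scaled and curves failing quality control removed.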

P12-Ichikawa [5] = assay: as above
Method in brief: as §2

SEM cells [6] = assay: as above
Method in brief: as §2

CCNC(=O)C[C@@H]1\N=C(C2=CC=C(Cl)C=C2)/C3=C(C=CC(=C3)OC)[N]4C(=NN=C14)C
cell viability [%]
Conditions | NOMO1 [1] | P12-Ichikawa [2] | SEM cells [3]
HPLM + 10% dialyzed FBS, 0.000781 µM | 121 | 106 | –
HPLM + 10% dialyzed FBS, 0.00234 µM | 130 | 115 | –
HPLM + 10% dialyzed FBS, 0.00702 µM | 123 | 106 | –
HPLM + 10% dialyzed FBS, 0.0211 µM | 121 | 114 | –
HPLM + 10% dialyzed FBS, 0.0632 µM | 114 | 105 | –
HPLM + 10% dialyzed FBS, 0.19 µM | 120 | 103 | –
HPLM + 10% dialyzed FBS, 0.569 µM | 107 | 92.1 | –
HPLM + 10% dialyzed FBS, 1.71 µM | 84.8 | 83.5 | –
HPLM + 10% dialyzed FBS, 5.12 µM | 68.5 | 78.2 | –
HPLM + 10% dialyzed FBS, 15.4 µM | 29 | 50.1 | –
HPLM + 10% dialyzed FBS, 46.1 µM | 15 | 17 | –
RPMI 5 mM glucose + 10% FBS, 0.000781 µM | 108 | 114 | –
RPMI 5 mM glucose + 10% FBS, 0.00234 µM | 118 | 111 | –
RPMI 5 mM glucose + 10% FBS, 0.00702 µM | 103 | 127 | –
RPMI 5 mM glucose + 10% FBS, 0.0211 µM | 114 | 106 | –
RPMI 5 mM glucose + 10% FBS, 0.0632 µM | 121 | 105 | –
RPMI 5 mM glucose + 10% FBS, 0.19 µM | 105 | 111 | –
RPMI 5 mM glucose + 10% FBS, 0.569 µM | 104 | 101 | –
RPMI 5 mM glucose + 10% FBS, 1.71 µM | 90.2 | 84.7 | –
RPMI 5 mM glucose + 10% FBS, 5.12 µM | 76.1 | 76 | –
RPMI 5 mM glucose + 10% FBS, 15.4 µM | 26.7 | 56.2 | –
RPMI 5 mM glucose + 10% FBS, 46.1 µM | 6.87 | 37.8 | –
RPMI 5 mM glucose + 10% dialyzed FBS, 0.000781 µM | 106 | 115 | 106
RPMI 5 mM glucose + 10% dialyzed FBS, 0.00234 µM | 116 | 118 | 114
RPMI 5 mM glucose + 10% dialyzed FBS, 0.00702 µM | 117 | 115 | 107
RPMI 5 mM glucose + 10% dialyzed FBS, 0.0211 µM | 109 | 117 | 105
RPMI 5 mM glucose + 10% dialyzed FBS, 0.0632 µM | 114 | 106 | 91.1
RPMI 5 mM glucose + 10% dialyzed FBS, 0.19 µM | 112 | 106 | 90.2
RPMI 5 mM glucose + 10% dialyzed FBS, 0.569 µM | 98 | 95.7 | 63.8
RPMI 5 mM glucose + 10% dialyzed FBS, 1.71 µM | 89.7 | 84 | 42.9
RPMI 5 mM glucose + 10% dialyzed FBS, 5.12 µM | 72.4 | 75.8 | 19.6
RPMI 5 mM glucose + 10% dialyzed FBS, 15.4 µM | 28.4 | 60.4 | 6.54
RPMI 5 mM glucose + 10% dialyzed FBS, 46.1 µM | 9.69 | 35.9 | 3.14

AUC of viability dose-response curve
Conditions | NOMO1 [4] | P12-Ichikawa [5] | SEM cells [6]
HPLM + 10% dialyzed FBS | 373 | 395 | 311
RPMI 5 mM glucose + 10% FBS | 392 | 396 | 299
RPMI 5 mM glucose + 10% dialyzed FBS | 388 | 388 | 303

Clc1cccc(-c2nnnn2Cc2cccnc2)c1Cl
cell viability [%]
Conditions | NOMO1 [1] | P12-Ichikawa [2] | SEM cells [3]
HPLM + 10% dialyzed FBS, 0.000781 µM | 82.8 | 88.7 | 79.7
HPLM + 10% dialyzed FBS, 0.00234 µM | 92.7 | 96 | 81.9
HPLM + 10% dialyzed FBS, 0.00702 µM | 96.4 | 92.4 | 67
HPLM + 10% dialyzed FBS, 0.0211 µM | 99.9 | 95.5 | 92.9
HPLM + 10% dialyzed FBS, 0.0632 µM | 92.4 | 94.9 | 101
HPLM + 10% dialyzed FBS, 0.19 µM | 93.1 | 87.4 | 103
HPLM + 10% dialyzed FBS, 0.569 µM | 79 | 77.9 | 92.6
HPLM + 10% dialyzed FBS, 1.71 µM | 57.2 | 74.1 | 57.7
HPLM + 10% dialyzed FBS, 5.12 µM | 49.8 | 74.5 | 49.4
HPLM + 10% dialyzed FBS, 15.4 µM | 48.6 | 70.4 | 50.2
HPLM + 10% dialyzed FBS, 46.1 µM | 33.1 | 56.6 | 45
RPMI 5 mM glucose + 10% FBS, 0.000781 µM | 80 | 88.5 | 101
RPMI 5 mM glucose + 10% FBS, 0.00234 µM | 87.1 | 91.2 | 92
RPMI 5 mM glucose + 10% FBS, 0.00702 µM | 89.5 | 86.6 | 70.1
RPMI 5 mM glucose + 10% FBS, 0.0211 µM | 84.1 | 91.1 | 102
RPMI 5 mM glucose + 10% FBS, 0.0632 µM | 91.5 | 96.1 | 95.3
RPMI 5 mM glucose + 10% FBS, 0.19 µM | 89 | 93.7 | 95
RPMI 5 mM glucose + 10% FBS, 0.569 µM | 90.5 | 94.9 | 74.6
RPMI 5 mM glucose + 10% FBS, 1.71 µM | 62.9 | 65.7 | 46.4
RPMI 5 mM glucose + 10% FBS, 5.12 µM | 55.8 | 57 | 40.4
RPMI 5 mM glucose + 10% FBS, 15.4 µM | 57.2 | 60.6 | 42
RPMI 5 mM glucose + 10% FBS, 46.1 µM | 48.5 | 56.7 | 35.9
RPMI 5 mM glucose + 10% dialyzed FBS, 0.000781 µM | 81.5 | 86.1 | 87.5
RPMI 5 mM glucose + 10% dialyzed FBS, 0.00234 µM | 83.6 | 91.3 | 85.7
RPMI 5 mM glucose + 10% dialyzed FBS, 0.00702 µM | 91.1 | 93.9 | 75
RPMI 5 mM glucose + 10% dialyzed FBS, 0.0211 µM | 93.6 | 95.2 | 93.4
RPMI 5 mM glucose + 10% dialyzed FBS, 0.0632 µM | 83.7 | 93.8 | 91.7
RPMI 5 mM glucose + 10% dialyzed FBS, 0.19 µM | 83.2 | 88.9 | 99.4
RPMI 5 mM glucose + 10% dialyzed FBS, 0.569 µM | 83.9 | 86.4 | 102
RPMI 5 mM glucose + 10% dialyzed FBS, 1.71 µM | 52.5 | 64.3 | 62
RPMI 5 mM glucose + 10% dialyzed FBS, 5.12 µM | 59.1 | 61.8 | 56
RPMI 5 mM glucose + 10% dialyzed FBS, 15.4 µM | 58 | 65.7 | 58.4
RPMI 5 mM glucose + 10% dialyzed FBS, 46.1 µM | 47.8 | 48.6 | 46.6

AUC of viability dose-response curve
Conditions | NOMO1 [4] | P12-Ichikawa [5] | SEM cells [6]
HPLM + 10% dialyzed FBS | 362 | 397 | 359
RPMI 5 mM glucose + 10% FBS | 365 | 385 | 348
RPMI 5 mM glucose + 10% dialyzed FBS | 357 | 382 | 375
